In ChEMBL document CHEMBL1136519, “Indole amide hydroxamic acids as potent inhibitors of histone deacetylases” (Bioorg Med Chem Lett, 2003):

Assays:
MDA-MB-435 = test: cells; format: functional, cell-based; settings: Homo sapiens
Description: Antiproliferative activity against MDA-435 (human breast carcinoma) cell line.

[1] = target: Histone deacetylase (HDAC1 and HDAC2) (Homo sapiens, UniProt Q13547+Q92769); test: Inhibitory activity was tested against histone deacetylase (HDAC).; format: protein assay
HT-1080 = test: Antiproliferative activity against HT1080 (human fibrosarcoma) cell line.; format: functional, cell-based
Mus musculus [2] = test: Antitumor activity against HT1080 cell line in mouse xenograft model after orally dosed once every other day at 30 mg/kg; format: functional; settings: HT-1080, route oral
Mus musculus [3] = test: Antitumor activity against HT1080 cell line in mouse xenograft model after orally dosed once every other day at 100 mg/kg; format: functional; settings: HT-1080, route oral

IC50 (MDA-MB-435) [nM] | IC50 [1] [nM] | IC50 (HT-1080) [nM] | Structure (SMILES) | inhibition in vivo at 30 mg/kg (Mus musculus [2]) [%] | inhibition in vivo at 100 mg/kg (Mus musculus [3]) [%]
1200 | 6.5 | 720 | COc1ccc2[nH]c(C(=O)NCCCCCCC(=O)NO)cc2c1 | – | –
170 | 6.3 | 200 | Cc1ccc2[nH]c(C(=O)NCCCCCCC(=O)NO)cc2c1 | – | –
– | 37.5 | – | O=C(CCCCCCNC(=O)c1c[nH]c2ccccc12)NO | – | –
470 | 3.5 | 480 | O=C(CCCCCCNC(=O)c1cc2cc(Br)ccc2[nH]1)NO | – | –
– | 37.6 | – | O=C(CCCCCNC(=O)c1cccc2cc[nH]c12)NO | – | –
610 | 47 | 840 | Cn1c(C(=O)NCCCCCCC(=O)NO)cc2ccccc21 | – | –
– | 87.6 | – | O=C(CCCCCNC(=O)c1cccc2[nH]ccc12)NO | – | –
300 | 16 | 890 | O=C(CCCCCCNC(=O)c1cc2cc(OC(F)(F)F)ccc2[nH]1)NO | – | –
380 | 11.8 | 990 | O=C(CCCCCCNC(=O)c1cn(-c2ccc(F)cc2)c2ccccc12)NO | – | –
– | 80.3 | – | O=C(CCCCCCNC(=O)c1cccc2[nH]ccc12)NO | – | –
– | 56.5 | – | O=C(CCCCCCNC(=O)c1ccc2cc[nH]c2c1)NO | – | –
– | 31.4 | – | O=C(CCCCCCNC(=O)c1ccc2[nH]ccc2c1)NO | – | –
390 | 56 | 780 | Cn1cc(C(=O)NCCCCCCC(=O)NO)c2ccccc21 | – | –
– | 41 | – | O=C(CCCCCCNC(=O)c1cccc2cc[nH]c12)NO | – | –
– | 39.8 | – | O=C(CCCCCNC(=O)c1c[nH]c2ccccc12)NO | – | –
490 | 29.6 | 760 | O=C(CCCCCCNC(=O)c1cc2ccccc2o1)NO | – | –
– | 1680 | – | O=C(CCCCCCNC(=O)c1ccccn1)NO | – | –
– | 14.6 | – | O=C(CCCCCCNC(=O)c1cc2ccccc2[nH]1)NO | 36 | 39
230 | 9.9 | 340 | COc1ccc2cc(C(=O)NCCCCCCC(=O)NO)[nH]c2c1 | – | –
300 | 15 | 380 | COc1ccc2oc(C(=O)NCCCCCCC(=O)NO)cc2c1 | – | –
340 | 18.9 | 490 | O=C(CCCCCCNC(=O)c1cn(-c2ccc(Br)cc2)c2ccccc12)NO | – | –
– | 36.4 | – | O=C(CCCCCNC(=O)c1ccc2cc[nH]c2c1)NO | – | –
– | 17 | – | O=C(CCCCCNC(=O)c1ccc2[nH]ccc2c1)NO | – | –
– | 12.5 | – | O=C(CCCCCNC(=O)c1cc2ccccc2[nH]1)NO | – | –
250 | 5.4 | 480 | O=C(CCCCCCNC(=O)c1cc2cc(F)ccc2[nH]1)NO | – | –
320 | 17 | 710 | COc1cccc2cc(C(=O)NCCCCCCC(=O)NO)oc12 | – | –

Structure (SMILES) | IC50 (MDA-MB-435) [nM] | IC50 [1] [nM] | IC50 (HT-1080) [nM] | inhibition in vivo at 30 mg/kg (Mus musculus [2]) [%] | inhibition in vivo at 100 mg/kg (Mus musculus [3]) [%]
COc1cc(OC)c2cc(C(=O)NCCCCCCC(=O)NO)[nH]c2c1 | 600 | 3.1 | 260 | – | –
O=C(CCCCCCNC(=O)c1cn(-c2ccccc2)c2ccccc12)NO | 760 | 3.5 | 2500 | – | –
O=C(CCCCCCNC(=O)c1ccc[nH]1)NO | – | 524 | – | – | –
O=C(CCCCCCNC(=O)c1cc2cc(OCc3ccccc3)ccc2[nH]1)NO | 800 | 13.6 | 1500 | – | –
CC1c2ccccc2CC1C(=O)NCCCCCCC(=O)NO (stereo not given) | – | 732 | – | – | –
O=C(CCCCCCNC(=O)c1cn(Cc2ccccc2)c2ccccc12)NO | 850 | 12 | 1900 | – | –
Cc1c(C(=O)NCCCCCCC(=O)NO)oc2ccccc12 | – | 12.5 | – | – | –
COc1cccc2[nH]c(C(=O)NCCCCCCC(=O)NO)cc12 | 130 | 3.1 | 120 | – | –
O=C(CCCCCCNC(=O)c1cc2cc(Cl)ccc2o1)NO | 190 | 15 | 180 | – | –
